How the values were obtained:
[1] = tested on: Cyperus iria; experiment: Postemergence weed control under flooded paddy conditions, CYPIR (Rice Flatsedge); type: in vivo; settings: rated three to four weeks after treatment
[2] = tested on: Sagittaria pygmaea, L.; experiment: Postemergence weed control under flooded paddy conditions, SAGPY (Arrowhead (Pygmaea)); type: in vivo; settings: rated three to four weeks after treatment
[3] = tested on: Monochoria vaginalis, Presl.; experiment: Postemergence weed control under flooded paddy conditions, MOOVA (Monochoria); type: in vivo; settings: rated three to four weeks after treatment
[4] = tested on: Echinochloa oryzoides (Ard.) Fritsch.; experiment: Postemergence weed control under flooded paddy conditions, ECHORC (Watergrass (Calif.)); type: in vivo; settings: rated three to four weeks after treatment
[5] = tested on: Oryza sativa, (L.) Tebonnet; experiment: Rice tolerance to post-transplant applications under flooded paddy conditions (Example 188), ORYSAT (Rice, Tebonnet); settings: rated three to four weeks after treatment
[6] = tested on: Cyperus serotinus, Rottb.; experiment: Preemergence weed control under flooded paddy conditions, CYPSE (Flatsedge); type: in vivo; settings: preemergence, rated three to four weeks after treatment; also: meaning of each grade not given here
[7] = tested on: Oryza sativa, (L.) Tebonnet; experiment: Rice tolerance to post-transplant applications under flooded paddy conditions (Example 187), ORYSAT (Rice, Tebonnet); settings: rated three to four weeks after treatment; also: meaning of each grade not given here
[8] = tested on: Cyperus serotinus, Rottb.; experiment: Postemergence weed control under flooded paddy conditions, CYPSE (Flatsedge); type: in vivo; settings: rated three to four weeks after treatment
[9] = tested on: Echinochloa oryzoides (Ard.) Fritsch.; experiment: Preemergence weed control under flooded paddy conditions, ECHORC (Watergrass (Calif.)); type: in vivo; settings: preemergence, flooded paddy, rated three to four weeks after treatment; also: meaning of each grade not given here
[10] = tested on: Monochoria vaginalis, Presl.; experiment: Preemergence weed control under flooded paddy conditions, MOOVA (Monochoria); type: in vivo; settings: preemergence, flooded paddy, rated three to four weeks after treatment; also: meaning of each grade not given here
[11] = tested on: Sagittaria pygmaea, L.; experiment: Preemergence weed control under flooded paddy conditions, SAGPY (Arrowhead (Pygmaea)); type: in vivo; settings: preemergence, flooded paddy, rated three to four weeks after treatment; also: meaning of each grade not given here
[12] = tested on: Cyperus iria; experiment: Preemergence weed control under flooded paddy conditions, CYPIR (Rice Flatsedge); type: in vivo; settings: preemergence, flooded paddy, rated three to four weeks after treatment; also: meaning of each grade not given here

SMILES: CC(C)S(=O)(=O)NC(=O)c1nsc2ccc(-n3c(=O)cc(C(F)(F)F)n(C)c3=O)cc12 [Example 362, 1,2-Benzisothiazole-3-carboxamide, 5-[3,6-dihydro-3-methyl-2,6-dioxo-4-(trifluoromethyl)-1(2H)-pyrimidinyl]-N-(isopropylsulfonyl)-]
- herbicidal effect rating, CYPIR ([1]; Rate 0.0320 kg/ha): 4.0
- herbicidal effect rating, CYPIR ([1]; Rate 0.0620 kg/ha): 7.0
- herbicidal effect rating, CYPIR ([1]; Rate 0.1250 kg/ha): 8.0
- herbicidal effect rating, CYPIR ([1]; Rate 0.2500 kg/ha): 4.0
- herbicidal effect rating, SAGPY ([2]; Rate 0.0320 kg/ha): 0.0
- herbicidal effect rating, SAGPY ([2]; Rate 0.0620 kg/ha): 0.0
- herbicidal effect rating, SAGPY ([2]; Rate 0.1250 kg/ha): 4.0
- herbicidal effect rating, SAGPY ([2]; Rate 0.2500 kg/ha): 8.0
- herbicidal effect rating, MOOVA ([3]; Rate 0.0320 kg/ha): 9.0
- herbicidal effect rating, MOOVA ([3]; Rate 0.0620 kg/ha): 9.0
- herbicidal effect rating, MOOVA ([3]; Rate 0.1250 kg/ha): 9.0
- herbicidal effect rating, MOOVA ([3]; Rate 0.2500 kg/ha): 9.0
- herbicidal effect rating, ECHORC ([4]; Rate 0.0320 kg/ha): 0.0
- herbicidal effect rating, ECHORC ([4]; Rate 0.0620 kg/ha): 2.0
- herbicidal effect rating, ECHORC ([4]; Rate 0.1250 kg/ha): 7.0
- herbicidal effect rating, ECHORC ([4]; Rate 0.2500 kg/ha): 9.0
- herbicidal effect rating, ORYSAT (rice tolerance) ([5]; Rate 0.0320 kg/ha): 3.0
- herbicidal effect rating, ORYSAT (rice tolerance) ([5]; Rate 0.0620 kg/ha): 3.0
- herbicidal effect rating, ORYSAT (rice tolerance) ([5]; Rate 0.1250 kg/ha): 3.0
- herbicidal effect rating, ORYSAT (rice tolerance) ([5]; Rate 0.2500 kg/ha): 6.0
- herbicidal effect rating, CYPSE ([6]; Rate 0.0320 kg/ha): 6.0
- herbicidal effect rating, CYPSE ([6]; Rate 0.0620 kg/ha): 9.0
- herbicidal effect rating, CYPSE ([6]; Rate 0.1250 kg/ha): 9.0
- herbicidal effect rating, CYPSE ([6]; Rate 0.2500 kg/ha): 9.0
- herbicidal effect rating, CYPSE ([6]; Rate 0.5000 kg/ha): 9.0
- herbicidal effect rating ORYSAT ([7]; Rate 0.0320 kg/ha): 4.0
- herbicidal effect rating ORYSAT ([7]; Rate 0.0620 kg/ha): 4.0
- herbicidal effect rating ORYSAT ([7]; Rate 0.1250 kg/ha): 4.0
- herbicidal effect rating ORYSAT ([7]; Rate 0.2500 kg/ha): 6.0
- herbicidal effect rating ORYSAT ([7]; Rate 0.5000 kg/ha): 8.0
- herbicidal effect rating, CYPSE ([8]; Rate 0.0320 kg/ha): 0.0
- herbicidal effect rating, CYPSE ([8]; Rate 0.0620 kg/ha): 9.0
- herbicidal effect rating, CYPSE ([8]; Rate 0.1250 kg/ha): 9.0
- herbicidal effect rating, CYPSE ([8]; Rate 0.2500 kg/ha): 9.0
- herbicidal effect rating, ECHORC ([9]; Rate 0.0320 kg/ha): 4.0
- herbicidal effect rating, ECHORC ([9]; Rate 0.0620 kg/ha): 7.0
- herbicidal effect rating, ECHORC ([9]; Rate 0.1250 kg/ha): 7.0
- herbicidal effect rating, ECHORC ([9]; Rate 0.2500 kg/ha): 9.0
- herbicidal effect rating, ECHORC ([9]; Rate 0.5000 kg/ha): 9.0
- herbicidal effect rating, MOOVA ([10]; Rate 0.0320 kg/ha): 9.0
- herbicidal effect rating, MOOVA ([10]; Rate 0.0620 kg/ha): 9.0
- herbicidal effect rating, MOOVA ([10]; Rate 0.1250 kg/ha): 9.0
- herbicidal effect rating, MOOVA ([10]; Rate 0.2500 kg/ha): 9.0
- herbicidal effect rating, MOOVA ([10]; Rate 0.5000 kg/ha): 9.0
- herbicidal effect rating, SAGPY ([11]; Rate 0.0320 kg/ha): 9.0
- herbicidal effect rating, SAGPY ([11]; Rate 0.0620 kg/ha): 9.0
- herbicidal effect rating, SAGPY ([11]; Rate 0.1250 kg/ha): 9.0
- herbicidal effect rating, SAGPY ([11]; Rate 0.2500 kg/ha): 9.0
- herbicidal effect rating, SAGPY ([11]; Rate 0.5000 kg/ha): 9.0
- herbicidal effect rating, CYPIR ([12]; Rate 0.0320 kg/ha): 3.0
- herbicidal effect rating, CYPIR ([12]; Rate 0.0620 kg/ha): 5.0
- herbicidal effect rating, CYPIR ([12]; Rate 0.1250 kg/ha): 5.0
- herbicidal effect rating, CYPIR ([12]; Rate 0.2500 kg/ha): 7.0
- herbicidal effect rating, CYPIR ([12]; Rate 0.5000 kg/ha): 9.0

From patent EP0908457B1, “3-(1,2-benzisothiazol- and isoxazol-5-Y1)-2,4(1H,3H)-pyrimidinedione or thione and 3-(1,2-benzisothiazol- and isoxazol-5-y1)-4(3H)-pyrimidinone or thione herbicidal agents” (BASF AKTIENGESELLSCHAFT, priority 1997, dated 1999)
